Experimental data reported in patent US10175228B2, “Method of using transmembrane channel-like protein 6 (TMC6) protein to identify substances affecting salty taste” (priority 2016, dated 2019).

Target: T1, mouse TMC6 protein (Mus musculus, UniProt Q7TN60, A788T)
T1 construct: expressed in transfected cells; host or cells: CHO-K1
T1 sequence (Q7TN60 1-810 A788T): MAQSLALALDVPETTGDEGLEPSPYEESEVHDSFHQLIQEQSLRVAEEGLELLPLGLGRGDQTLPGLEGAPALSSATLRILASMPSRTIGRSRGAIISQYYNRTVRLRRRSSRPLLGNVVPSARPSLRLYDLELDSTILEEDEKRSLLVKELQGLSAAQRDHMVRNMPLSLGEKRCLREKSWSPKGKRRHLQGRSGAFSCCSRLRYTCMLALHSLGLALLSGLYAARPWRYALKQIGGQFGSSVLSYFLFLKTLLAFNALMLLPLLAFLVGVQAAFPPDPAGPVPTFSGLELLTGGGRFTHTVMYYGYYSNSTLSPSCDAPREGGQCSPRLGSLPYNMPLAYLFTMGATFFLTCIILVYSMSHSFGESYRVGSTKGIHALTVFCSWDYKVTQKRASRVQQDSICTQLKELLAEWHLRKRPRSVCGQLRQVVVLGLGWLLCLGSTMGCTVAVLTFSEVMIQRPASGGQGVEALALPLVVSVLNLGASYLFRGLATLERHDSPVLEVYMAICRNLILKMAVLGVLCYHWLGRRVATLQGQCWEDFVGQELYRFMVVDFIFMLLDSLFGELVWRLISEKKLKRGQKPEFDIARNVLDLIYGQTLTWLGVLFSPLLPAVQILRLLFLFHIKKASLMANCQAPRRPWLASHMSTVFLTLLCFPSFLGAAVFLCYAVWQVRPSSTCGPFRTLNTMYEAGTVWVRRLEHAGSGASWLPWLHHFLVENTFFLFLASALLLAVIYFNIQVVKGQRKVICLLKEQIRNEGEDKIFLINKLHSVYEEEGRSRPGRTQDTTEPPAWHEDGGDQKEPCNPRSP
Test: Calcium imaging (YC2.60 FRET) of CHO-K1 cells expressing the mouse TMC6 gene
Format: cell-based
Method: CHO-K1 cells were transfected with TMC6-pcDNA3.1 or pcDNA3.1 in combination with YC2.60-pcDNA, to prepare TMC6-expressing cells (cells expressing the mouse TMC6 gene and the YC2.60 gene) and control cells (cells expressing the YC2.60 gene). The prepared cells were stimulated, and activation of the cells was measured. The procedure was as follows.
That is, first, CHO-K1 cells (ATCC) were inoculated into a culture dish having a diameter of 60 mm while adjusting the number of the cells to obtain 60% confluence, and cultured for 8 hr. As the medium, 5 mL of Ham's F-12K (Kaighn's) (Life Technologies) containing 10% fetal bovine serum (Life Technologies) was used. A 15 μL aliquot of FuGENE 6 (Promega) was added to 235 μL of Opti-MEM (Thermo Fisher Scientific), and incubated for 5 min at a room temperature. Then, 0.625 μg of TMC6-pcDNA3.1 and 2.5 μg of YC2.60-pcDNA were further added thereto, and incubated for 15 min at a room temperature. Then, the whole of the resultant mixture was dropped into the culture broth of the CHO-K1 cells, and the culture broth was mildly stirred. Then, the cells were further cultured for 18 hr under a condition of 5% CO2 at 37° C., to obtain the TMC6-expressing cells. Similarly, the control cells were obtained through transfection using pcDNA3.1 instead of TMC6-pcDNA3.1.
After the cultivation, the culture broth was removed. A low-concentration NaCl solution (27 mM NaCl, 1 mM KCl, 0.4 mM CaCl2, 0.2 mM MgCl2, 2 mM Hepes (pH7.3), 1 mM NaHCO3, 2 mM glucose, 2 mM sodium pyruvate, and 112 mM NMDG-Cl) was added to the culture dish, incubation was carried out statically for 5 min, and then, stimulation and observation of cells were started. First, the low-concentration NaCl solution was perfused for approximately 80 sec, to provide a ground state. Then, a high-concentration NaCl solution (135 mM NaCl, 1 mM KCl, 0.4 mM CaCl2, 0.2 mM MgCl2, 2 mM Hepes (pH7.3), 1 mM NaHCO3, 2 mM glucose, and 2 mM sodium pyruvate) was perfused instead of the low-concentration NaCl solution for approximately 60 sec, to stimulate the cells. […]

[Cl-].[Na+] [NaCl, sodium chloride]
relative FRET value (YFP/CFP) of the ROI-1 cell (one typical TMC6-expressing cell, stimulation with high-concentration NaCl solution (135 mM NaCl), FIG. 13C): approximately 1.2
change of YFP/CFP value (intracellular calcium concentration, cell activation) (stimulation with high-concentration NaCl solution (135 mM NaCl) for approx. 60 sec after 27 mM NaCl ground state): increase
